From ChEMBL document CHEMBL1150011 (Bioorg Med Chem Lett, 1996)
Values belong to the molecule of their own block, whether it stands above or below them.

Tests used:
Rattus norvegicus [1] = assay: Diuretic activity in rat was determined by measuring urine volume at a dose of 10 mg/kg upon oral administration; format: functional
Rattus norvegicus [2] = assay: Diuretic activity in rat was determined by measuring sodium excretion at a dose of 10 mg/kg upon oral administration; format: functional, Urine
Adenosine receptor A1 [3] = target: T1, Adenosine receptor A1 (Cavia porcellus, UniProt P47745); assay: Inhibition of adenosine induced negative inotropic activity against guinea-pig atria (Adenosine A1 receptor); format: functional
T1 sequence (P47745 whole entry): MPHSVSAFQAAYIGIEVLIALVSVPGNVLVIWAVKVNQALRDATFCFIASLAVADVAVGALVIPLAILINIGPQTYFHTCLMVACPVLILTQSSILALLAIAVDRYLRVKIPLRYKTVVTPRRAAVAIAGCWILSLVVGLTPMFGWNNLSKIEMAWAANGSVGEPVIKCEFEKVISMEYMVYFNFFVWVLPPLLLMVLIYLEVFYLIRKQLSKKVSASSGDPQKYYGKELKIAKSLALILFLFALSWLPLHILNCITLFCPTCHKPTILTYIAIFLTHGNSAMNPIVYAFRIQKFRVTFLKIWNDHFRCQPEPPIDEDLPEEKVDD

Adenosine receptor A1 [4] = target: T2, Adenosine receptor A1 (Rattus norvegicus, UniProt P25099); assay: Inhibition of [3H]CHA binding against Adenosine A1 receptors of rat cortical membranes; format: cell membranes, Membrane
T2 sequence (P25099 whole entry): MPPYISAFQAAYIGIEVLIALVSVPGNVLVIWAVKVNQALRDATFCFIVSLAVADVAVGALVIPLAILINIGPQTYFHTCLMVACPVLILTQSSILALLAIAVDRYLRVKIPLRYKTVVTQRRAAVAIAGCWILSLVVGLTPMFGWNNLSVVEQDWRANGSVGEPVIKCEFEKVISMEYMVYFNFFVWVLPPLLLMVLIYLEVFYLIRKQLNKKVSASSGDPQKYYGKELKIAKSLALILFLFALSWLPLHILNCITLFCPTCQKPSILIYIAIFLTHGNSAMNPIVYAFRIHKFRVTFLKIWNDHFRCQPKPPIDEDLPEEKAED

Adenosine receptor A1 [5] = target: T1, Adenosine receptor A1; assay: Inhibition of adenosine induced negative inotropic activity against guinea-pig atria (Adenosine A1 receptor) at 10 nM; format: functional

Structure (SMILES): CC[C@@H]1CCCCN1C(=O)/C=C/c1c(-c2ccccc2)nn2ccccc12
Urine volume (% of control) (Rattus norvegicus [1]): 201%
Sodium excretion (% of control) (Rattus norvegicus [2]): 220%

Structure (SMILES): O=C(/C=C/c1c(-c2ccccc2)nn2ccccc12)N1CCCCC1
Urine volume (% of control) (Rattus norvegicus [1]): 195%
Sodium excretion (% of control) (Rattus norvegicus [2]): 179%

Structure (SMILES): CC[C@H]1CCCCN1C(=O)/C=C/c1c(-c2ccccc2)nn2ccccc12
Urine volume (% of control) (Rattus norvegicus [1]): 94%
Sodium excretion (% of control) (Rattus norvegicus [2]): 91%

Continued, in another order:

IC50 (Adenosine receptor A1 [3]): 0.56 nM
IC50 (Adenosine receptor A1 [4]): 17.2 nM
Structure (SMILES): O=C(/C=C/c1c(-c2ccccc2)nn2ccccc12)N1CCCC[C@H]1CCO
Urine volume (% of control) (Rattus norvegicus [1]): 272%
Sodium excretion (% of control) (Rattus norvegicus [2]): 280%

IC50 (Adenosine receptor A1 [4]): 10100 nM
Structure (SMILES): O=C(/C=C/c1c(-c2ccccc2)nn2ccccc12)N1CCCC[C@@H]1CCO [FK453]
Urine volume (% of control) (Rattus norvegicus [1]): 96%
Sodium excretion (% of control) (Rattus norvegicus [2]): 96%

IC50 (Adenosine receptor A1 [5]): 91 nM
Structure (SMILES): CCC1CCCCN1C(=O)/C=C/c1c(-c2ccccc2)nc2sc(C)nn12 (stereo unspecified)
Urine volume (% of control) (Rattus norvegicus [1]): 242%
Sodium excretion (% of control) (Rattus norvegicus [2]): 278%
